Measurements published in patent publication US6011070A, “Slow-onset, long-lasting dopamine reuptake blockers” (priority 1997, dated 2000).
Where two headings read alike, the source gives them in different places.

How the values were obtained:
male Swiss-Webster mice = assay: Dose response study of induced locomotor stimulation (Digiscan), 1 h session (Example 2); type: in vivo, Swiss-Webster mice (Hsd:ND4); conditions: IP, locomotor activity
Experimental: A dose response study of induced locomotor stimulation was conducted according to the following procedure. The study was conducted using a 16 or 32 Digiscan locomotor activity testing chambers (40.5×40.5×30.5 cm) housed in sets of two, within sound-attenuating chambers. A panel of infrared beams (16 beams) and corresponding photodetectors were located in the horizontal direction along the sides of each activity chamber. A 15-W incandescent light above each chamber provided dim illumination. Fans provided an 80-dB ambient noise level within the chamber. Separate groups of 8 non-habituated male Swiss-Webster mice (Hsd:ND4, aged 2-3 months) were injected via the intraperitoneal (IP) route with either vehicle (deionized water for Compounds 1-4, carboxymethylcellulose for Compound 6 or methyl cellulose for Compound 7)) or test compound (1, 2.5, 5, 10, 25 or 50 mg/kg for Compound 3; 1, 3, 10 and 30 mg/kg for Compounds 1, 2 and 4; 3, 10, 30 or 100 mg/kg for Compound 6; and 1, 3, 10, 30 and 100 mg/kg for Compound 7). Compounds 1-4 were injected immediately prior to locomotor activity testing. […] In all studies, horizontal activity (interruption of photocell beams) was measured for 1 hour within 10 minute periods. Testing was conducted with one mouse per activity chamber.
FIGS. 1, 3, 5 and 7 show average horizontal activity counts/10 minutes as a function of time, immediately following injection of Compound 1, Compound 2, Compound 3 and Compound 4, respectively. FIGS. 13 and 15 show average horizontal activity counts/10 minutes as a function of time, beginning twenty minutes following injection of Compound 6 and Compound 7, respectively. The period 30-60 minutes was selected for analysis of dose-response data. Using TableCurve 2D v2.03 software (Jandel Scientific), the mean average horizontal activity counts/10 minutes for this period were fit to a 3-parameter logistic peak function of log10 dose (with the constant set to 1989, the mean of the vehicle-treated group), and the maximum effect estimated from the resulting curve. […] FIGS. 2, 4, 6, 8, 14 and 16 show average horizontal activity counts/10 minutes over 30 minutes versus the amount administered of Compound 1, Compound 2, Compound 3, Compound 4, Compound 6 and Compound 7, respectively.

dopamine transporter [1] = target: T1, dopamine transporter (Rattus norvegicus, UniProt P23977); assay: Inhibition of binding of dopamine to the dopamine transporter (Example 4)
T1 construct: from tissue
T1 sequence (P23977 whole entry): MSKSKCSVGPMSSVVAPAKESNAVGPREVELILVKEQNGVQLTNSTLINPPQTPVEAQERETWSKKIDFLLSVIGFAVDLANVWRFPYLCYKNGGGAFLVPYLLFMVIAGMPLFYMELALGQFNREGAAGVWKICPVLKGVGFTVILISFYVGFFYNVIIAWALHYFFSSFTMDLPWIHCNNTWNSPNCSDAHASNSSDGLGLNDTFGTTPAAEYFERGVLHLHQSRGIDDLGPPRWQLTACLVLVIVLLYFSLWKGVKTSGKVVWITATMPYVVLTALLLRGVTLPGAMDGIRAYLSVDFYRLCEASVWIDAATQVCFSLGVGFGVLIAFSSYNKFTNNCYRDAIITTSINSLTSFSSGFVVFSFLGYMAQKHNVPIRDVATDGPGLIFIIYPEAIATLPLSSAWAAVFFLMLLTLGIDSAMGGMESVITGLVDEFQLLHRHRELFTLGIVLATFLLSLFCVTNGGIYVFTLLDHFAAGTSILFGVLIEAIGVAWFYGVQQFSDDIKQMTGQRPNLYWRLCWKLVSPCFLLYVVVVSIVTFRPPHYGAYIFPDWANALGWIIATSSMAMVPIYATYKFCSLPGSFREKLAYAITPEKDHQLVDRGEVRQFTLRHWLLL

dopamine transporter [2] = target: T1, dopamine transporter; assay: Inhibition of dopamine reuptake (Example 4); type: biochemical
squirrel monkeys [3] = assay: Locomotor response in primates (Example 5); type: in vivo
Experimental: Compound 1 was tested for its ability to induce a locomotor response in primates according to procedures disclosed in Rosenzweig-Lipson et al., Psychopharmacology 107:186 (1992). Three squirrel monkeys were administered 1.0 mg/kg of Compound 1. […] The results for each monkey are shown below in Table III and is presented as the responses per second on each day of the test. Controls were established by testing each monkey prior to administering Compound 1.

monkeys = assay: Previous evaluation, Task I: Drug Discrimination; type: in vivo
Text: It is of interest to compare the results of the present study with the results of our previous evaluation of Compound 1 in Task I: Drug Discrimination. […] Higher doses of Compound 1 were not examined in the present study.

male rhesus monkeys = conditions: for Rates of cocaine self-administration, % of control levels: 30 min pretreatment
squirrel monkeys [4] = assay: Locomotor response in primates (Example 5); type: in vivo; remark: listed apart in the source

Q: What does the source list for `CN(C)C1CC(c2ccc(Cl)c(Cl)c2)c2ccccc21` (stereo not shown) [Compound 1, N,N-dimethyl-3-(3',4'-dichlorophenyl)-1-indanamine]?
A: Maximal Effect Relative to Cocaine (male Swiss-Webster mice): 0.82; ED50 (male Swiss-Webster mice; Mus musculus, 30-60 min period, read-out: ED50 (dose producing 1/2 maximal stimulant activity)): 4.88 mg/kg; IC50 (dopamine transporter [1]): 47 nM; Uptake/Binding (dopamine transporter [2]; ratio of IC50 values): 1.19; IC50 (dopamine transporter [2]; read-out: DA Uptake, inhibition of dopamine reuptake IC50): 56 nM; Time of peak of locomotor response (squirrel monkeys [3]; 1.0 mg/kg Compound 1): three; Number of Responses/Second (squirrel monkeys [3]; 1.0 mg/kg Compound 1, Day 1, Monkey 6 (control 0.93)): 1.01 responses/second; Number of Responses/Second (squirrel monkeys [3]; 1.0 mg/kg Compound 1, Day 2, Monkey 4 (control 1.15)): 1.72 responses/second; Number of Responses/Second (squirrel monkeys [3]; 1.0 mg/kg Compound 1, Day 4, Monkey 4 (control 1.15)): 1.06 responses/second; Number of Responses/Second (squirrel monkeys [3]; 1.0 mg/kg Compound 1, Day 4, Monkey 5 (control 0.51)): 1.01 responses/second; Number of Responses/Second (squirrel monkeys [3]; 1.0 mg/kg Compound 1, Day 5, Monkey 4 (control 1.15)): 1.05 responses/second; Effect on response rates (monkeys; Compound 1, 3.2 mg/kg): little effect on response rates in two monkeys, increased response rates in one monkey, and eliminated responding in only one monkey; Effect on responding, feeding and behavior (monkeys; Compound 1, 10 mg/kg, one monkey): eliminated operant responding, decreased free feeding and produced overt behavioral effects including hyperactivity and agitation for several days; Effect on response rates (monkeys; Compound 1, doses up to 1.0 mg/kg): little or no effect on response rates; Rates of cocaine self-administration, % of control levels (male rhesus monkeys; 3.2 mg/kg Compound 1 i.m.): approximately 25 % of control levels; Rates of cocaine self-administration and food-maintained responding across cocaine unit doses (male rhesus monkeys; 3.2 mg/kg Compound 1 i.m., all three monkeys): decreased rates of cocaine self-administration across a wide range of cocaine unit doses while producing relatively minor effects on food-maintained responding; Rates of food-maintained responding (male rhesus monkeys; 3.2 mg/kg Compound 1 i.m., monkey 89B056): usually unaffected; Rates of food-maintained responding (male rhesus monkeys; 3.2 mg/kg Compound 1 i.m., monkey J3A): small and inconsistent changes; Cocaine unit doses at which self-administration rates were decreased (male rhesus monkeys; 3.2 mg/kg Compound 1 i.m., monkey WH8): 0.001-0.01 mg/kg/inj; Rates of food-maintained responding, % of control levels (male rhesus monkeys; 3.2 mg/kg Compound 1 i.m., monkey WH8, first food component): approximately 30 % of control levels; Rates of food-maintained responding (male rhesus monkeys; 3.2 mg/kg Compound 1 i.m., monkey WH8, second food component): unaffected; Range of cocaine doses across which self-administration was decreased (male rhesus monkeys; 3.2 mg/kg Compound 1 i.m., three monkeys): one to two; Rates of cocaine self-administration, % of control levels (male rhesus monkeys; 0.1-1.0 mg/kg Compound 1 i.m.): 50-75 % of control levels; Overt behavioral effects (male rhesus monkeys; Compound 1, 0.1-3.2 mg/kg i.m., prior to or during test session): did not produce noticeable overt behavioral effects; Onset of locomotor response (squirrel monkeys [4]; 1.0 mg/kg Compound 1, 25 minute intervals): slow onset locomotor response; Number of Responses/Second (squirrel monkeys [4]; 1.0 mg/kg Compound 1, Day 1, Monkey 4 (control 1.15)): 1.63 responses/second; Number of Responses/Second (squirrel monkeys [4]; 1.0 mg/kg Compound 1, Day 1, Monkey 5 (control 0.51)): 0.76 responses/second; Number of Responses/Second (squirrel monkeys [4]; 1.0 mg/kg Compound 1, Day 2, Monkey 5 (control 0.51)): 1.50 responses/second; Number of Responses/Second (squirrel monkeys [4]; 1.0 mg/kg Compound 1, Day 2, Monkey 6 (control 0.93)): 1.31 responses/second; Number of Responses/Second (squirrel monkeys [4]; 1.0 mg/kg Compound 1, Day 3, Monkey 4 (control 1.15)): 1.92 responses/second; Number of Responses/Second (squirrel monkeys [4]; 1.0 mg/kg Compound 1, Day 3, Monkey 5 (control 0.51)): 1.51 responses/second; Number of Responses/Second (squirrel monkeys [4]; 1.0 mg/kg Compound 1, Day 3, Monkey 6 (control 0.93)): 1.40 responses/second; Number of Responses/Second (squirrel monkeys [4]; 1.0 mg/kg Compound 1, Day 4, Monkey 6 (control 0.93)): 1.16 responses/second; Number of Responses/Second (squirrel monkeys [4]; 1.0 mg/kg Compound 1, Day 5, Monkey 5 (control 0.51)): 0.82 responses/second; Number of Responses/Second (squirrel monkeys [4]; 1.0 mg/kg Compound 1, Day 5, Monkey 6 (control 0.93)): 1.14 responses/second; Number of Responses/Second (squirrel monkeys [4]; 1.0 mg/kg Compound 1, Day 6, Monkey 5 (control 0.51)): 0.62 responses/second; Number of Responses/Second (squirrel monkeys [4]; 1.0 mg/kg Compound 1, Day 7, Monkey 5 (control 0.51)): 0.60 responses/second
